Data from publication PMC4900628, “Critical Evaluation of P2X7 Receptor Antagonists in Selected Seizure Models” (PLoS ONE, 2016).

Tests used:
[1] = Plasma and brain concentration in mice (co-administration with AEDs); type: in vivo; conditions: PTZ-T
Experimental: Blood was collected intracardially by heart […] pipettes supplemented with heparin-Na (ratiopharm, Ulm, Germany; 10μl of 5.000 I.U./ml) and separated by centrifuging (1500xg for 10 min) at 6-8°C. The plasma was stored at -20°C in plastic tubes. After blood sample collection, rats were decapitated and brains were quickly dissected. After removing the adherent blood by tissue paper and cutting off the cerebellum, the samples were fresh frozen using liquid nitrogen. Brain tissue was stored at -80°C and delivered to the different laboratories on dry ice. For mice (groups with n = 6), a similar procedure was used for the preparation of plasma and brain samples. In experiments in which AFC was co-administered with carbamazepine or ethosuximide, drug concentrations in plasma and brain were estimated to detect potential pharmacokinetic interactions. Samples from experiments with AFC were analysed at the Lead Discovery Center (Dortmund, Germany). Briefly, AFC, carbamazepine and ethosuximide were extracted from plasma and homogenized brain by protein precipitation using acetonitrile. Resulting filtrates were analysed by liquid chromatography tandem-mass spectrometry (LC-MS/MS) using a Prominence UFLC system (Shimadzu, Duisburg, Germany) coupled to a QTrap 5500 instrument (ABSciex, Darmstadt, Germany). The compounds were separated on a Zorbax Eclipse Plus C18 column (Agilent Technologies, Santa Clara, CA, USA) with an acetonitrile/water gradient containing 0.1% formic acid as solvent. Chromatographic conditions and mass spectrometer parameters were optimized for each analyte. Plasma and brain concentrations of the compounds were calculated by means of a standard curve. Data were analysed using SigmaPlot (vers. 12.0, Systat Software, Erkrath, Germany) and SPSS (IBM SPSS Statistics 20, […], Germany), respectively. Results are expressed as mean ± SEM. […] In the MES-T, the current intensity inducing tonic hindlimb extensions in 50% of the mice (CC50 values with confidence limits for 95% probability) and the statistical significance was calculated using Probit analysis (SPSS). […] In the PTZ-T, the number of animals in the group with clonic seizures and the latency time were analysed using Fisher's exact probability test and the Mann-Whitney rank sum test, respectively. For multiple comparisons of the latency time a one-way ANOVA with the Holm-Sidak post hoc test was used. The influence of AFC on the plasma and brain concentrations of the antiepileptic drugs was statistical compared using the same procedure. In the PTZ-kindling model, the mean seizure stage within a group was calculated in relation to the number of PTZ-injections. Statistical comparison between vehicle- and compound-treated groups in this model was performed with two-way repeated measures ANOVA, followed by the Holm-Sidak post hoc test. The mean number of PTZ-injections needed to produce the first generalized seizure (≥ stage 3 convulsions) in the vehicle- versus compound-treated groups was statistically compared using a Mann-Whitney rank sum test. In fully kindled rats, the calculated mean seizure stage within a group after vehicle- and compound-treatment were compared using a paired t-test. P < 0.05 was the accepted minimum level of significance.

[2] = test system: PTZ-induced seizures in fully PTZ-kindled rats; assay: PTZ-induced seizures in fully kindled rats; type: in vivo; conditions: for effect on mean seizure stage in fully kindled rats: TIIAS 30 mg/kg i.p., BBG 50 mg/kg i.p., AFC 25 mg/kg i.p., JNJ 30 mg/kg s.c., acute
Description: Results were expressed as mean seizure stages of a tested group in which the seizure behaviour after vehicle treatment (vehicle seizure stage) and after compound treatment (compound seizure stage), examined 3-4 days later, was matched. For comparison, the effectiveness of two antiepileptic drugs (carbamazepine and valproate) was also investigated. […] Chemicals, Toronto, Canada) was slowly added. The pH was adjusted with 1N NaOH (similar amount of NaOH as HCl), all with continuous stirring. […] The drug solutions or suspensions were prepared immediately before use; all doses refer to the salts. Animals in the control group received equivalent volumes of the vehicle (in mice always 10 ml/kg, in rats 1 ml/kg [JNJ], 3 ml/kg [AFC] or 4 ml/kg [BBG, TIIAS], depending on the solubility of the different compounds). Doses and peak time effects were selected on the basis of effective doses from corresponding in vivo studies in the literature: BBG (e.g.), tanshinone IIA (e.g.) and from manufacturer's experimental data: AFC, JNJ (see, [80]). Data were analysed using SigmaPlot (vers. 12.0, Systat Software, Erkrath, Germany) and SPSS (IBM SPSS Statistics 20, […], Germany), respectively. Results are expressed as mean ± SEM. […] In the MES-T, the current intensity inducing tonic hindlimb extensions in 50% of the mice (CC50 values with confidence limits for 95% probability) and the statistical significance was calculated using Probit analysis (SPSS). […] In the PTZ-T, the number of animals in the group with clonic seizures and the latency time were analysed using Fisher's exact probability test and the Mann-Whitney rank sum test, respectively. For multiple comparisons of the latency time a one-way ANOVA with the Holm-Sidak post hoc test was used. The influence of AFC on the plasma and brain concentrations of the antiepileptic drugs was statistical compared using the same procedure. In the PTZ-kindling model, the mean seizure stage within a group was calculated in relation to the number of PTZ-injections. Statistical comparison between vehicle- and compound-treated groups in this model was performed with two-way repeated measures ANOVA, followed by the Holm-Sidak post hoc test. The mean number of PTZ-injections needed to produce the first generalized seizure (≥ stage 3 convulsions) in the vehicle- versus compound-treated groups was statistically compared using a Mann-Whitney rank sum test. In fully kindled rats, the calculated mean seizure stage within a group after vehicle- and compound-treatment were compared using a paired t-test. P < 0.05 was the accepted minimum level of significance.

[3] = design: method as in earlier work; conditions: 45.5 mg/kg i.p. every 48h for 1 month, ref [11] of S1 File, cited from earlier work

CCC1(C)CC(=O)NC1=O (stereo not drawn) [Ethosuximide, ethosuximide]
blood concentrations of ethosuximide on co-application of AFC [1]: did not significantly modulate
brain concentration of ethosuximide alone ([1]; ethosuximide 100 mg/kg i.p., n = 6): 377.3 ± 14.3 µM
brain concentration of ethosuximide with AFC 50 mg/kg i.p. ([1]; ethosuximide 100 mg/kg i.p., n = 6, significantly increased): 453.9 ± 18.7 µM

O=C(NCC1(N2CCN(c3ccccc3)CC2)CCOCC1)c1cccnc1Sc1ccccc1 [JNJ-47965567, N-[[4-(4-phenyl-piperazin-1-yl)tetrahydro-2H-pyran-4-yl]-methyl]-2-(phenyl-thio) nicotinamide]
effect on mean seizure stage in fully kindled rats [2]: tendency to reduce the mean seizure stage
mean seizure stage, post-drug ([2]; fully kindled rats, 15 mg/kg s.c., pre-drug (vehicle) value 4.4, significant): 2.9

CCOc1ccc(Nc2ccc(/C(=C3C=C/C(=[N+](/CC)Cc4cccc(S(=O)(=O)[O-])c4)C=C/3C)c3ccc(N(CC)Cc4cccc(S(=O)(=O)O)c4)cc3C)cc2)cc1 [Brilliant Blue G]
effect on mean seizure stage in fully kindled rats [2]: tendency to reduce the mean seizure stage
brain-plasma ratio in mice [3]: 0.02
brain concentrations in mice ([3]; spectrophotometric analysis): 0.15 µM

Cc1c(S(=O)(=O)[O-])oc2c1C(=O)C(=O)c1c-2ccc2c1CCCC2(C)C.[Na+] [Tanshinone TIIAS, tanshinone IIS sulfonic sodium]
effect on mean seizure stage in fully kindled rats [2]: tendency to reduce the mean seizure stage
